Results on seven substances are retold here after US10239916B2, “Controlled modulation of amino acid side chain length of peptide antigens” (Board of Regents, The University of Texas System, priority 2002, dated 2019).

For assay [1], the system named is PBMC. Briefly: IFN-γ induction in PBMC/T cells stimulated with peptide-pulsed autologous DC (ELISA). Format: cell-based, human. Also noted: IFN-γ induction at priming compared with E75: dose or concentration left out as unconfirmed. To be noted: for IFN-γ induction at priming compared with E75: two weak E75-responder donors, […] μM on autologous DC; for IFN-γ at priming compared with E75: donor 1; for increase of IFN-γ at priming over E75: donor 2. (In an ELISA, binding on a coated surface is turned into a signal by an enzyme label.)

Assay [2] concerns T2 cells pulsed with E75. Put plainly: CTL assay: lysis of peptide-pulsed T2 cells by peptide-induced CTL. In kind it is cell-based, human. To be noted: for recognition of E75 by variant-induced CTL compared with E75-induced CTL: donor 1, priming; for E75-specific lytic activity of variant-induced CTL compared with E75-CTL: donor 2.
The test system of assay [3] is CD8+ cells. Put plainly: Expansion and survival of peptide-stimulated T cells (numbers of live / CD8+ cells). In kind it is cell-based, human. To be noted: for number / survival of stimulated cells at restimulation compared with E75: donor 2; for percentage of live cells: donor 2, 30 days after priming, primed and restimulated.
Another assay concerns the target HLA-A2 (Homo sapiens, UniProt P04439, D140Y/D185E/D98H/E176V/E277Q/G131W/G231S/I119V/I121R/I166T/I218V/N151K/N90K/P208A/P217A/Q86G/Q94H/R138H/R169H). Put plainly: Molecular modeling of peptide:HLA-A2 complex, accessible surface area (GETAREA 1.1).
Assay [4] has as its system PBMC. Briefly: IL-2 induction in PBMC/T cells stimulated with peptide-pulsed autologous DC (ELISA). In kind it is cell-based, human. To be noted: Donor 3.
The subject of the next assay is SKOV3.A2 cells. Put plainly: Cold-target inhibition of lysis of SKOV3.A2 by T2-E75. Format: cell-based, human.
Another assay concerns Bcl-2, Bcl-xL, Bad. Format: cell-based, human. To be noted: for up-regulation of Bcl-2 and Bcl-XL: F42SK-CTL restimulated with agonists pulsed on T2.
In assay [5] the test system is CD8+ cells. Briefly: Two color FACS (CD62L, CFSE) of peptide-stimulated CD8+ cells. To be noted: Donor 1 CD8+ cells, 20 additional days in IL-2. Format: cell-based, human.
The test system of assay [6] is ovarian tumor OVA-16 (HLA-A2+, HER-2high). Briefly: Cold-target inhibition of cytolysis of OVA-16 by T2-E75. In kind it is cell-based, human. To be noted: S5K-CTL. The source says: (§1) FIGS. 11A-11C. […] FIGS. 11A and 11B, Cold target inhibition of cytolysis of OVA-16 (HLA-A2, HER-2^high). […] E:T ratio was 10:1; the ratio of cold to hot targets was 1:1. C, IFN γ induction. IL-12 was used at 3 IU (300 pg/ml); the responders to SKOV3. A2 stimulator ratio was 40:1.
(§2) Similar inhibition (38%) was observed against SKOV3.A2 in a 16-h assay. […] The levels of inhibition of lysis indicative of specific recognition were similar to those levels observed with donor 2, E75-CTL, and S5K-CTL (FIG. 8E). S5K-CTL was also tested for the ability to secrete IFN-γ at an encounter with the ovarian tumor SKOV3.A2 and its HLA-A2^− counterpart SKOV3. This was necessary because the tumor and responding lymphocytes shared HLA-A3.

Another assay concerns SKOV3.A2. Briefly: IFN-γ secretion of S5K-CTL at encounter with ovarian tumor SKOV3.A2. To be noted: SKOV3.A2 stimulator, IL-12 as costimulator. Format: cell-based, human.
From the text: as §1, §2

For another assay, the system named is E75+TCR cells. Briefly: E75+TCR cells determined with E75 dimers (dE75), flow cytometry. Format: cell-based, human. A general note: A flow cytometer gives signals particle by particle.
The subject of assay [7] is T2 cells pulsed with E75. To be noted: cited from earlier work.

Where no end group is shown, it is not given here. [ ]: non-standard residue; d: D form. Nle = CCCC[C@H](N)C(=O)O; Nva = CCC[C@H](N)C(=O)O

Consider “A7.2: E75 with Ala7 replaced by norvaline (NVal), 2 CH2 groups extending linearly from Ala7 (KIFGSL[Nva]FL)”, for which the “IFN-γ induction at priming” value with PBMC [1] (Donor 3) is given as “stronger inducer of IFN-γ”. The “IFN-γ response to E75 of primed T cells relative to E75-primed T cells” value with PBMC [1] (E75 at 2 μM, within 16 h, Donor 1) is 3 fold. In addition, the IFN-γ induction result with PBMC [1] (cells from donors and ovarian cancer patients which did not respond to E75) is “higher levels of IFN-γ than A7.3 and G4.3”. Further, the “IFN-γ induction at priming compared with E75” value in the assay on PBMC [1] is given as “higher levels of IFN-γ than E75”. The “number of E75-specific LU, schedule 2×A7.3 to 2×A7.2 relative to 4×A7.3” value in the assay with T2 cells pulsed with E75 [2] is “two times higher”. Besides, in the assay on T2 cells pulsed with E75 [2] (4×2), the “increase in number of E75-lytic specific effectors, 2×A7.3 to 2×A7.2 vs 4×A7.3” value came to 8 fold. Further, in the assay on T2 cells pulsed with E75 [2] (A7.3-induced, A7.3-restimulated CTL after additional stimulation with A7.2), the “E75 level recognized by induced CTL” value is 50 nM. Also, in the assay with T2 cells pulsed with E75 [2] (CTL at 50 nM level), the “sensitivity for E75 relative to E75-induced CTL” value is listed as “at least 100 fold”. The “lytic activity induced in rested A7.3 CTL by restimulation” value with T2 cells pulsed with E75 [2] (tested 30 h later, no IL-2) is “somewhat higher levels of lytic activity”. Moreover, the “numbers of CD8+ cells, schedule 2×A7.3 to 2×A7.2 relative to 4×A7.3” value with CD8+ cells [3] was determined as 4 times.
As for “K1FGSL (NLeu)FL (KIFGSL[Nle]FL) [A7.3, 10]”, in the assay with HLA-A2, the “change in the surface between E75 and A7.3” value worked out at 0.036%. Besides, the “IFN-γ induction at priming compared with E75” value in the assay with PBMC [1] is on record as “higher levels of IFN-γ than E75”. For the same substance, the “IL-2 induction at priming” value in the assay on PBMC [4] was “stronger inducer of IL-2 than A7.2”. The “E75 level recognized by induced CTL” value in the assay with T2 cells pulsed with E75 [2] (A7.3-induced CTL-TIL restimulated with A7.3) came out at 200 nM. Also, the “exogenous pulsed E75 concentration recognized by induced CTL” value with T2 cells pulsed with E75 [2] (Donor 4 (CTL-4), three stimulations) is listed as 25 nM. For the same substance, the “inhibition of SKOV3.A2 lysis by T2-E75” value in the assay on SKOV3.A2 cells (A7.3-induced CTL-TIL, 5 h CTL assay) is 60%. For the same substance, the “inhibition of lysis of SKOV3-A2 by T2-E75” value in the assay on SKOV3.A2 cells (CTL-3 primed with E75 and restimulated, T2-E75 at 100 nM) is listed as 27%. Further, the “up-regulation of Bcl-2 and Bcl-XL” value in the assay on Bcl-2, Bcl-xL, Bad was “significantly stronger stimulators for up-regulation of Bcl-2 and Bcl-XL than F42”. In addition, in the assay with Bcl-2, Bcl-xL, Bad (S5K-CTL CD8+ cells stimulated 96 h, 25 μg/ml), the “Bcl-xL to Bad ratio” value was “even higher Bcl-xL to Bad ratios than E75”.
As for KIFGALAFL [S5A], in the assay with PBMC [1], the “IFN-γ at priming compared with E75” value was “higher levels of IFN-γ” and the “increase of IFN-γ at priming over E75” value was 100%. For the same substance, in the assay on T2 cells pulsed with E75 [2], the “recognition of E75 by variant-induced CTL compared with E75-induced CTL” value (from here on “recognition … compared with E75-induced CTL”) is “recognized E75 better than CTL induced by E75” and the “E75-specific lytic activity of variant-induced CTL compared with E75-CTL” value is “significantly higher”. In the assay on CD8+ cells [3], the “number / survival of stimulated cells at restimulation compared with E75” value (shortened to “number / survival … compared with E75”) was “dropped faster” and the “percentage of live cells” value is on record as “decrease in live cells”.
With KIFGGLAFL [S5G], in the assay with PBMC [1], the “IFN-γ at priming compared with E75” value is given as “higher levels of IFN-γ” and the “increase of IFN-γ at priming over E75” value is 64%. In the assay on T2 cells pulsed with E75 [2], the “recognition … compared with E75-induced CTL” value was “recognized E75 better than CTL induced by E75”. In addition, the “CD62L+ cells in the resulting population” value in the assay on CD8+ cells [5] came to 4.8%. Moreover, in the assay on CD8+ cells [3], the “number / survival … compared with E75” value is “dropped faster” and the “percentage of live cells” value was “decrease in live cells”.
In the case of KIFGKLAFL [S5K], in the assay with PBMC [1], the “IFN-γ and IL-2 response of S5K-CTL compared with E75” value was “higher levels of IFN-γ, but lower levels of IL-2”; the “IFN-γ at priming compared with E75” value was “higher levels of IFN-γ”; the “increase of IFN-γ at priming over E75” value stood at 36%. Further, in the assay with PBMC [1] (healthy donor responding weakly to E75), the “IFN-γ induction compared with E75” value was “higher IFN-γ induction”. In addition, in the assay with T2 cells pulsed with E75 [2] (E75 10 μg/ml, E:T ratio 40:1), the “lysis of T2-E75 by peptide-induced CTL” value turned out to be 25.4 % lysis. Also, in the assay on T2 cells pulsed with E75 [2], the “recognition … compared with E75-induced CTL” value is recorded as “CTL induced by priming with E75 recognized E75 better” and the “E75-specific lytic activity of variant-induced CTL compared with E75-CTL” value is “lower than the recognition by E75-CTL”. In the assay with T2 cells pulsed with E75 [2] (donor 3 E75-CTL, peptide 50 μg/ml), the “recognition (lysis) of peptide-pulsed T2 by E75-CTL” value is recorded as 32%. Moreover, the “inhibition of lysis of SKOV3.A2 by T2-E75” value with SKOV3.A2 cells (S5K-CTL, 16-h assay) is 38%. For the same substance, the “inhibition of tumor lysis by T2-E75 compared with E75-CTL” value in the assay with SKOV3.A2 cells (donor 2, E:T 30:1, cold:hot 10:1) is “inhibited less by T2-E75 than lysis by E75-CTL”. Further, the “inhibition of lysis of OVA-16 by T2-E75” value in assay [6] (8-h CTL assay) was 21%. The “inhibition of lysis of OVA-16 by T2-E75” value in assay [6] (16-h assay) turned out to be 45%. Besides, in the assay with SKOV3.A2, the “IFN-γ secretion by peptide-induced CTL” value is “high levels of IFN-γ within 20 h”. Moreover, in the assay on Bcl-2, Bcl-xL, Bad, the “up-regulation of Bcl-2 and Bcl-XL” value is reported as “slightly stronger up-regulator of Bcl-2 than E75”. The “up-regulation of Bcl-2” value in the assay on Bcl-2, Bcl-xL, Bad (S5K-CTL) is reported as “slightly stronger up-regulator of Bcl-2 than E75”. For the same substance, the “increase in number of CD8+ cells of S5K-CTL” value (“increase … of S5K-CTL” for short) in the assay with CD8+ cells [3] (50 μg/ml peptide + anti-Fas, 4 days) turned out to be 27%. For the same substance, the “numbers of live cells recovered after stimulation and expansion in IL-2” value in the assay on CD8+ cells [3] (S5K-CTL stimulated with peptide-pulsed T2) was 2.9 ×10^6 cells. For the same substance, in the assay with CD8+ cells [3] ([…] μg/ml peptide + anti-Fas, 4 days), the “increase … of S5K-CTL” value was 0.93%. The “number / survival … compared with E75” value with CD8+ cells [3] is “survived longer than E75-stimulated cells”. In addition, in the assay with CD8+ cells [3] (donor 3, after third stimulation), the survival of responders result is listed as “better survival in responders than E75”. For the same substance, the “increase … of S5K-CTL” value with CD8+ cells [3] (in the absence of CH11) is recorded as “no increase in cell number”. Also, the “Bcl-2 levels in small E75+TCR lymphocytes” value in the assay on E75+TCR cells (S5K-CTL) is listed as “higher in the small lymphocytes”. For the same substance, the “MCF of E75+TCR expression in small lymphocytes” value with E75+TCR cells (S5K-CTL stimulated 1 wk) came out at 180. For the same substance, the “exogenous pulsed E75 recognized by F42SK-CTL” value in the assay with T2 cells pulsed with E75 [7] is 5000 ng/mL.
Regarding KIFGSLAYL [F8Y], the “IFN-γ at priming compared with E75” value in the assay on PBMC [1] is on record as “lower levels of IFN-γ”. The “recognition … compared with E75-induced CTL” value in the assay on T2 cells pulsed with E75 [2] was “CTL induced by priming with E75 recognized E75 better”.
For KIFSGSLAKL [F8K], in that order: “lower levels of IFN-γ” and “CTL induced by priming with E75 recognized E75 better”.
